Assays:
Durum line UT15 = assay: Greenhouse Trial: plant injury rating, imazamox; assay type: in vivo, Durum wheat; details: 0-9 scale, 0 = no injury, 9 = plant death
Description: (§1) Fifteen Durum lines, each derived from a different M2 plant, and two wild type durum lines were evaluated for tolerance to the imidazolinone herbicide imazamox at rates of 100 and 160 g/ha in a greenhouse trial. Evaluations of tolerance were made at 14 and 21 days after treatment. Injury was scored on a 0-9 scale, with 0 representing no injury and 9 plant death.

Durum line UTO1 = assay: Greenhouse Trial: plant injury rating, imazamox; assay type: in vivo, Durum wheat; details: 0-9 scale, 0 = no injury, 9 = plant death
Description: as §1

Durum line UTO5 = assay: Greenhouse Trial: plant injury rating, imazamox; assay type: in vivo, Durum wheat; details: 0-9 scale, 0 = no injury, 9 = plant death
Description: as §1

Durum line UT14 = assay: Greenhouse Trial: plant injury rating, imazamox; assay type: in vivo, Durum wheat; details: 0-9 scale, 0 = no injury, 9 = plant death
Description: as §1

[1] = tested on: AHAS of M2-derived imidazolinone herbicide tolerant lines; assay: In vitro AHAS activity, tolerant lines overall; assay type: biochemical, Durum wheat; details: highest concentration of imazamox (100 uM), 'generally'
Source text: The in vitro activity of AHAS enzyme extracted from the plant can be measured biochemically. […] Even at relatively low concentrations, AHAS activity falls off rapidly.
Table 3 also contains AHAS activity data for several M2-derived imidazolinone herbicide tolerant lines.

Compound: COCc1cnc(C2=NC(C)(C(C)C)C(=O)N2)c(C(=O)O)c1 (centres unmarked) [imazamox]
- Average plant injury rating (Durum line UT15; imazamox 100 g/ha, 14 DAT): 4.3
- Average plant injury rating (Durum line UT15; imazamox 100 g/ha, 21 DAT): 2.7
- Average plant injury rating (Durum line UT15; imazamox 160 g/ha, 14 DAT): 4.6
- Average plant injury rating (Durum line UT15; imazamox 160 g/ha, 21 DAT): 3.0
- Average plant injury rating (Durum line UTO1; imazamox 100 g/ha, 14 DAT): 4.0
- Average plant injury rating (Durum line UTO1; imazamox 100 g/ha, 21 DAT): 1.4
- Average plant injury rating (Durum line UTO1; imazamox 160 g/ha, 14 DAT): 4.1
- Average plant injury rating (Durum line UTO1; imazamox 160 g/ha, 21 DAT): 2.6
- Average plant injury rating (Durum line UTO5; imazamox 100 g/ha, 14 DAT): 3.0
- Average plant injury rating (Durum line UTO5; imazamox 100 g/ha, 21 DAT): 1.3
- Average plant injury rating (Durum line UTO5; imazamox 160 g/ha, 14 DAT): 3.3
- Average plant injury rating (Durum line UTO5; imazamox 160 g/ha, 21 DAT): 1.8
- Average plant injury rating (Durum line UT14; imazamox 100 g/ha, 14 DAT): 3.1
- Average plant injury rating (Durum line UT14; imazamox 100 g/ha, 21 DAT): 1.7
- Average plant injury rating (Durum line UT14; imazamox 160 g/ha, 14 DAT): 4.8
- Average plant injury rating (Durum line UT14; imazamox 160 g/ha, 21 DAT): 3.5
- AHAS activity relative to that of the control [1]: one third to one half

— patent publication US20160376605A1, “WHEAT PLANTS HAVING INCREASED TOLERANCE TO IMIDAZOLINONE HERBICIDES” (BASF SE, priority 2003, published 2016)
